Earlier results, collected in publication PMC3826081 (Journal of the American Chemical Society, 2013).

Molecular target: PG9
Details: read-out: Kd for binding of PG9; NMR studies; glycan-Asn alone; cited from earlier work

SMILES: CC(=O)N[C@@H]1[C@@H](O)[C@H](O[C@@H]2O[C@H](CO)[C@@H](O[C@@H]3O[C@H](CO[C@H]4O[C@H](CO[C@H]5O[C@H](CO)[C@@H](O)[C@H](O)[C@@H]5O)[C@@H](O)[C@H](O[C@H]5O[C@H](CO)[C@@H](O)[C@H](O)[C@@H]5O)[C@@H]4O)[C@@H](O)[C@H](O[C@H]4O[C@H](CO)[C@@H](O)[C@H](O)[C@@H]4O)[C@@H]3O)[C@H](O)[C@H]2NC(C)=O)[C@@H](CO)O[C@H]1NC(=O)C[C@H](N)C(=O)O [Man5GlcNAc2–Asn]
- Kd: 1000 to 2000 µM
